Earlier results as cited in US20080014285A1, “METHOD OF TREATING NEURODEGENERATIVE BRAIN DISEASE WITH A COMPOSITE COMPRISING […] NANOPARTICLES AND A […] COMPOUND” (priority 2006, published 2008).

How the values were obtained:
dopaminergic neurons = settings: low dose; PD
[1] = peripheral administration, hypermagnesemia
[2] = systemic administration; patients with intracranial hypertension
[3] = test system: glutamate-induced nitric oxide related neurotoxicity
traumatic brain injury = settings: administration no more than 12 hours post-trauma

## VEGF
Dopaminergic neurons
  neuroprotection of dopaminergic neurons: neuroprotective

## O=S(=O)([O-])[O-].[Mg+2] [magnesium sulfate]
[1]
  total and ionized CSF [Mg]: only marginal increases
[2]
  CSF ionized magnesium concentration: failed to increase
  increase of plasma magnesium levels: > 50%

## CN(c1nc2ccccc2s1)C1CCN(C[C@H](O)COc2ccc(F)c(F)c2)CC1 [lubeluzole]
[3]
  glutamate-induced nitric oxide related neurotoxicity: inhibits

## [Mg+2] [magnesium]
Traumatic brain injury
  brain magnesium homeostasis: restores brain magnesium homeostasis
  motor and cognitive outcome: profoundly improves both motor and cognitive outcome
